Measurements reported in paper PMC6224419, “Structural Studies based on two Lysine Dioxygenases with Distinct Regioselectivity Brings Insights Into Enzyme Specificity within the Clavaminate Synthase-Like Family” (Scientific Reports, 2018).
Read-outs that look alike come from different tables or passages of the source.

What was measured:
KDO1 = biological target: T1, KDO1 (Catenulispora acidiphila, UniProt C7QJ42); assay type: binding; details: active site
T1 construct: gene Caci_0231; hexa-histidine tail (pET-22b(+)), E. coli BL21(DE3); dimer in solution; first ordered residue Glu30
T1 sequence (C7QJ42 1-358): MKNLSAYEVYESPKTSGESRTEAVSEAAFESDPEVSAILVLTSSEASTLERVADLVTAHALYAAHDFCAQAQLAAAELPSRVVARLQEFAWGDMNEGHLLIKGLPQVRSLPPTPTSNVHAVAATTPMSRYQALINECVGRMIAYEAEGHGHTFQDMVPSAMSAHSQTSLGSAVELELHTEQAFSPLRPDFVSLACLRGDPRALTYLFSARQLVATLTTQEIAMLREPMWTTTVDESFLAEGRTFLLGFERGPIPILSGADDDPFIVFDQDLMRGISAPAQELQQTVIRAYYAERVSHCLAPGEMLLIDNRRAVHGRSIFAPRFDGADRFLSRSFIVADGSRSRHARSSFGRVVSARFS

KDO5 = biological target: T2, KDO5 (Flavobacterium sp. CF136, UniProt J3BZS6); test: X-ray crystal structure (soak); assay type: binding; details: active site
T2 construct: gene PMI10_03368; hexa-histidine tail (pET-22b(+)), E. coli BL21(DE3); tetramer in solution; first ordered residue Ala13

[1] = biological target: the molecule itself; test: SEC; analytic gel filtration on Superdex 200 Increase 10/300 GL, 100 µL purified protein, 50 mM Tris-HCl pH 8.0, 50 mM NaCl, 10% glycerol, 0.3 ml/min; oligomeric state from elution volume against a calibration curve; data not shown
[2] = FeSO4/dithionite soak, monomer C

NCCC[C@H](O)[C@H](N)C(=O)O [(3S)-3-hydroxy-L-lysine]
X-ray crystal structure (soak) (KDO1; FeSO4/dithionite soak with succinate, monomer B): The (3S)-3-hydroxy-L-lysine makes salt bridges with Glu180

NCCCC[C@H](N)C(=O)O [L-lysine]
X-ray crystal structure (soak) (KDO1; [2]): In KDO1, the L-lysine complex shows a well ordered lysine in monomer C
X-ray crystal structure (soak) (KDO5; [2]): the carboxylate of L-lysine substrate is stabilized by salt bridges with the Arg338

O=C(O)CCC(=O)O [succinate]
X-ray crystal structure (soak) (KDO5; crystals soaked with L-lysine and α-ketoglutarate, FeSO4/dithionite, monomer D): The succinate resultant from the oxidative decarboxylation of the α-KG, makes H-bond Tyr193

O=C(O)CCC(=O)C(=O)O [α-KG]
X-ray crystal structure (soak) (KDO1; FeSO4/dithionite soak, bidentate to iron, monomer B): In the α-KG crystals, the structure shows a well ordered α-KG in monomer B
X-ray crystal structure (soak) (KDO5; FeSO4/dithionite soak, bidentate to iron, monomer A): In α-KG bound structure, α-KG is best defined for monomer A

B1: KDO1 from Catenulispora acidiphila (L-lysine dioxygenase, C-3 regioselective) (enzyme, UniProt C7QJ42 1-358, looked up)
chain: T1 sequence (C7QJ42 1-358)
notes: KDO1, iron(II)/alpha-ketoacid-dependent lysine dioxygenase of Catenulispora acidiphila; Cloned into pET-22b(+) with a hexa-histidine tail; Dimer in solution; four molecules (two dimers) in the asymmetric unit; First ordered residue in the crystals is Glu30; also called K DiOxygenase 1; source: E. coli BL21(DE3), purified (Ni-NTA)
stoichiometry N [1]: 2

B2: KDO5 from Flavobacterium sp. (L-lysine dioxygenase, C-4 regioselective) (enzyme, UniProt J3BZS6 1-372, looked up)
chain: MKSQSIMSVERSAETSLTLEIPTSPLIIKITQQERNILSNVGNLLVKAFGNYENPDYIASLHLHAFQLLPERITRILSQFGSDFSAEQYGAIVFQGLIEVDQDDLGPTPPNWQGADYGKLNKYGFICSLLHGAVPSKPVQYYAQRKGGGLLHAVIPDEKMAATQTGSGSKTDLFVHTEDAFLSNQADFLSFLYLRNEERVPSTLYSIRSHGKMNPVMKKLFEPIYQCPKDANYNDEDVANSGPTASVLYGNRELPFIRFDAAEQIFNENAGQTSEALGNLMDFWDEAKTLINSDYIPNSGDLIFVNNHLCAHGRSAFIAGQRIENGEIIKCERRQMLRMMSKTSLIHIRSVTRTDDPYFIMEEHLGKIFDLD
notes: KDO5, iron(II)/alpha-ketoacid-dependent lysine dioxygenase of Flavobacterium sp; Cloned into pET-22b(+) with a hexa-histidine tail; Tetramer in solution; four molecules (two dimers) in the asymmetric unit; First ordered residue in the crystals is Ala13; also called K DiOxygenase 5; source: E. coli BL21(DE3), purified (Ni-NTA)
stoichiometry N [1]: 4
